Source: US9040715B2 (priority 2008, dated 2015)
≈ marks a conversion by molar mass, not a printed value.

Legend:
Huh7 cells = test: Neutral red uptake assay (cytotoxicity); format: cell-based, human
Text: The neutral red uptake assay is a cytotoxicity test that is based on the ability of viable cells to incorporate and bind the supra-vital dye neutral red in the lysosomes. This weakly cationic dye penetrates cell membranes by non-ionic passive diffusion and concentrates in the lysosomes, where it binds by electrostatic hydrophobic bonds to anionic and phosphate groups of the lysosomal matrix. The dye is then extracted from the viable cells using an acidified ethanol solution, and the absorbance of the solubilized dye is read. When the cell dies or the pH gradient is reduced, the dye is not retained and consequently, the amount of retained dye is proportional to the number of viable cells. Most primary cells and cell lines can be used for this method. The HepG2 and Huh7, two human hepatoma cell lines, were used for this study. The cells were seeded in 96-well tissue culture plates and treated for 48 hours with the compounds. The plates were then incubated for 2 hours with a medium containing neutral red. The cells were subsequently washed, the dye was extracted in each well, and the absorbance was read using a spectrophotometer (FIG. 3 and Table 11).

Huh7 or HepG2 cell line = test: MTT assay (cytotoxicity); format: cell-based, human; conditions: 24 hours and 48 hours
Method: The MTT assay is a colorimetric assay that measures the reduction of yellow 3-(4,5-dimethylhiazol-2-yl)-2,5-diphenyl tetrazolium bromide (MTT) by mitochondrial succinate dehydrogenase. The MTT enters the cells and passes into the mitochondria where it is reduced to an insoluble, dark purple, formazan product. The cells are then solubilized with an organic solvent (e.g., isopropanol) and the released, solubilized formazan reagent is measured spectrophotometrically. Since reduction of MTT can only occur in metabolically active cells, the level of activity is a measure of the viability of the cells.
Cells of the Huh7 or HepG2 cell line were seeded in a 96 well plate. The plate was incubated overnight at 37° C. in a humidified incubator, 5% CO2. The test compounds were added to the plate. Different concentrations of drug were tested in triplicate along with a negative control. The final volume was adjusted to 100 μl per well. The plate was incubated overnight at 37° C. in a humidified incubator, 5% CO2. After 24 hours and 48 hours, MTT reagent (5 mg/ml, 10 μl/100 μl per well of the 96 well plate) was added and incubated at 37° C. for 3 hours. After 3 hours, 100 μl of the DMSO solution was added to each well and the plate was rocked at room temperature for 1 hour. The plate was then read on a plate reader at […].

Candida glabrata = test: Anti-fungal/anti-yeast activity: MIC50 (broth microdilution) and MFC; format: cell-based; conditions: for Activity (fungicidal/fungistatic) / Ratio MFC/MIC: Candida glabrata; for MFC / MIC: Nakaseomyces glabratus; for MIC: read-out: MIC-50
Method: (§1) Fluconazole, an ergosterol inhibitor, and the beta-1,3-glucan inhibitor micafungin served as controls (See Tables 1-8).
(§2) The minimum inhibitory concentrations resulting in 50% growth inhibition (MIC50) of […] Candida species (C. albicans, C. tropicalis and C. glabrata, C. lusitaniae, C. parapsilosis, and C. apicola) as well as Aspergillus fumigatus to a set of novel synthetic compounds was determined in accordance with the guidelines in CLSI document M27-A2 (Clinical and Laboratory Standards Institute; Wayne, Pa.). The total volume of cells and drug was 100 μL per microtiter well, and each drug was diluted in RPMI to achieve final concentrations of 0.2-100 μg/ml. Uninoculated cultures were used as a reference standard. Stock inoculum suspensions were prepared from 24 hour cultures on YPD (yeast extract/peptone/dextrose) media at 30° C. For MIC determinations, an inoculum of 1.0×10^3 cells of Candidia and 2.0×10^3 cells of Aspergillus per well were used, and cells in diluted drugs were prepared in RPMI-1640 medium. MICs were determined both visually and spectrophotometrically at 24 hours and 48 h at 550 nm using a micro plate reader. The MIC50 endpoint was measured as the lowest drug concentration resulting in a reduction of growth of 50% or more compared with growth of the control.
(§3) The minimum fungicidal concentrations (MFCs) were determined for each drug-isolate-medium combination as follows. After 48 hours of incubation, 100 μL of each drug-isolate-medium combination (2 plates) was subcultured onto YPD plates (100 μL of solution was spread over the YPD plate). […] The plates were then incubated at 30° C. for 48 hours.
(§4) The in vitro fungicidal activities (MFCs) were determined for each drug-isolate-medium combination as follows. After 48 hours of incubation, 10 μL each drug-isolate-medium combination was spotted onto YPD plates (10 μL of each well is spotted sequentially with positive and negative control wells). […] The plates were then incubated at 30° C. for 48 hours.

Candida lusitaniae = test: as above; format: cell-based; conditions: for Activity (fungicidal/fungistatic) / Ratio MFC/MIC: Candida lusitaniae; for MFC / MIC: Clavispora lusitaniae; for MIC: read-out: MIC-50
Method: as §1, §2, §3, §4

Candida apicola = test: as above; format: cell-based; conditions: for Activity (fungicidal/fungistatic) / MIC-50 / Ratio MFC/MIC: Candida apicola; for MFC: Starmerella apicola
Method: as §1, §2, §3, §4

Candida albicans (CAF-2) = test: as above; format: cell-based; conditions: for MIC: read-out: MIC-50
Method: as §1, §2, §3, §4

Aspergillus fumigatus = test: as above; format: cell-based
Method: as §1, §2, §3, §4

Candida tropicalis = test: as above; format: cell-based; conditions: for MIC: read-out: MIC-50
Method: as §1, §2, §3, §4

Candidia parapsilosis = test: as above; format: cell-based; conditions: for Activity (fungicidal/fungistatic) / Ratio MFC/MIC: Candidia parapsilosis; for MIC: read-out: MIC-50
Method: as §1, §2, §3, §4

[1] = tested on: Saccharomyces cerevisiae (YPH501); test: as above; format: cell-based; conditions: for MFC / MIC: Saccharomyces cerevisiae; for Activity (fungicidal/fungistatic) / Ratio MFC/MIC: Saccharomyces cerevisiae (YPH501); for MIC: read-out: MIC-50

SMILES	Percentage Viability (Huh7 cells; 3.3 μg/mL (approx 1X MIC)) [%]	Percentage Viability (Huh7 cells; 10 μg/mL (approx 3X MIC)) [%]	Percentage Viability (Huh7 cells; 33 μg/mL (approx 10X MIC)) [%]	Percentage Viability (Huh7 cells; 100 μg/mL (approx 30X MIC)) [%]	Toxicity to mammalian cell lines (MTT assay) (Huh7 or HepG2 cell line)	Activity (fungicidal/fungistatic) (Candida glabrata)	Ratio MFC/MIC (Candida glabrata)	MFC (Candida glabrata) [µg/mL]	MIC (Candida glabrata) [µg/mL]	Activity (fungicidal/fungistatic) (Candida lusitaniae)	Ratio MFC/MIC (Candida lusitaniae)	MFC (Candida lusitaniae) [µg/mL]	MIC (Candida lusitaniae) [µg/mL]	Activity (fungicidal/fungistatic) (Candida apicola)	MIC-50 (Candida apicola) [µg/mL]	Ratio MFC/MIC (Candida apicola)	MFC (Candida apicola) [µg/mL]	Activity (fungicidal/fungistatic) (Candida albicans (CAF-2))	MFC (Candida albicans (CAF-2)) [µg/mL]	Ratio MFC/MIC (Candida albicans (CAF-2))	further results
COc1ccc(Cc2nnc(Cn3sc4ccccc4c3=O)o2)cc1 [Compound I-3]	>100	>100	>100	>100	minimally toxic	fungicidal (An MFC/MIC ratio of less than four indicates that the compound is fungicidal)	2	50	25	fungicidal (An MFC/MIC ratio of less than four indicates that the compound is fungicidal)	2	12.5	6.4	fungicidal (An MFC/MIC ratio of less than four indicates that the compound is fungicidal)	6.4	2	12.5	fungicidal (An MFC/MIC ratio of less than four indicates that the compound is fungicidal)	12.5	1	MIC (Candida albicans (CAF-2)): 12.5 µg/mL; Activity (fungicidal/fungistatic) (Aspergillus fumigatus): fungicidal (An MFC/MIC ratio of less than four indicates that the compound is fungicidal); MFC (Aspergillus fumigatus): 12.5 µg/mL; MIC50 (Aspergillus fumigatus): 6.4 µg/mL; Ratio MFC/MIC (Aspergillus fumigatus): 2; Activity (fungicidal/fungistatic) (Candida tropicalis): fungicidal (An MFC/MIC ratio of less than four indicates that the compound is fungicidal); MFC (Candida tropicalis): 12.5 µg/mL; Ratio MFC/MIC (Candida tropicalis): 2; MIC (Candida tropicalis): 6.4 µg/mL; MFC (Candidia parapsilosis): 12.5 µg/mL; Activity (fungicidal/fungistatic) (Candidia parapsilosis): fungicidal (An MFC/MIC ratio of less than four indicates that the compound is fungicidal); Ratio MFC/MIC (Candidia parapsilosis): 2; MIC (Candidia parapsilosis): 6.4 µg/mL; MFC [1]: 12.5 µg/mL (≈ 35.4 µM); Activity (fungicidal/fungistatic) [1]: fungicidal (An MFC/MIC ratio of less than four indicates that the compound is fungicidal); Ratio MFC/MIC [1]: 1; MIC [1]: 12.5 µg/mL (≈ 35.4 µM)
COc1ccc(CC(=O)NNC(=O)Cn2sc3ccccc3c2=O)cc1 [Compound I-6]	>100	>100	>100	67	minimally toxic	fungicidal (An MFC/MIC ratio of less than four indicates that the compound is fungicidal)	1	12.5	12.5	fungicidal (An MFC/MIC ratio of less than four indicates that the compound is fungicidal)	1	12.5	12.5	fungicidal (An MFC/MIC ratio of less than four indicates that the compound is fungicidal)	12.5	1	12.5	fungicidal (An MFC/MIC ratio of less than four indicates that the compound is fungicidal)	12.5	1	MIC (Candida albicans (CAF-2)): 12.5 µg/mL; Activity (fungicidal/fungistatic) (Candida tropicalis): fungicidal (An MFC/MIC ratio of less than four indicates that the compound is fungicidal); MFC (Candida tropicalis): 12.5 µg/mL; Ratio MFC/MIC (Candida tropicalis): 1; MIC (Candida tropicalis): 12.5 µg/mL; MFC (Candidia parapsilosis): 12.5 µg/mL; Activity (fungicidal/fungistatic) (Candidia parapsilosis): fungicidal (An MFC/MIC ratio of less than four indicates that the compound is fungicidal); Ratio MFC/MIC (Candidia parapsilosis): 1; MIC (Candidia parapsilosis): 12.5 µg/mL; MFC [1]: 12.5 µg/mL (≈ 33.7 µM); Activity (fungicidal/fungistatic) [1]: fungicidal (An MFC/MIC ratio of less than four indicates that the compound is fungicidal); Ratio MFC/MIC [1]: 1; MIC [1]: 12.5 µg/mL (≈ 33.7 µM)
O=c1c2ccccc2sn1Cc1nnc(Cc2ccccc2)o1 [Compound I-4]	>100	>100	>100	75	minimally toxic	fungicidal (An MFC/MIC ratio of less than four indicates that the compound is fungicidal)	1	12.5	12.5	fungicidal (An MFC/MIC ratio of less than four indicates that the compound is fungicidal)	1	12.5	12.5	fungicidal (An MFC/MIC ratio of less than four indicates that the compound is fungicidal)	12.5	1	12.5	fungicidal (An MFC/MIC ratio of less than four indicates that the compound is fungicidal)	6.4	1	MIC (Candida albicans (CAF-2)): 6.4 µg/mL; Activity (fungicidal/fungistatic) (Candida tropicalis): fungicidal (An MFC/MIC ratio of less than four indicates that the compound is fungicidal); MFC (Candida tropicalis): 12.5 µg/mL; Ratio MFC/MIC (Candida tropicalis): 1; MIC (Candida tropicalis): 12.5 µg/mL; MFC (Candidia parapsilosis): 12.5 µg/mL; Activity (fungicidal/fungistatic) (Candidia parapsilosis): fungicidal (An MFC/MIC ratio of less than four indicates that the compound is fungicidal); Ratio MFC/MIC (Candidia parapsilosis): 1; MIC (Candidia parapsilosis): 12.5 µg/mL; MFC [1]: 6 µg/mL (≈ 18.6 µM); Activity (fungicidal/fungistatic) [1]: fungicidal (An MFC/MIC ratio of less than four indicates that the compound is fungicidal); Ratio MFC/MIC [1]: 1; MIC [1]: 6 µg/mL (≈ 18.6 µM)
